Laboratory results from ChEMBL document CHEMBL5126496, “A novel compound active against SARS-CoV-2 targeting uridylate-specific endoribonuclease (NendoU/NSP15): in silico and in vitro investigations” (RSC Med Chem, 2021).

Legend:
SARS-CoV-2 [1] = experiment: Antiviral activity against SARS-CoV-2 MT020880 infected in African green monkey Vero cells assessed as inhibition of viral entry preincubated for 1 hr; format: functional, organism-based, Severe acute respiratory syndrome coronavirus 2
SARS-CoV-2 [2] = experiment: Antiviral activity against SARS-CoV-2 MT020880 infected in African green monkey Vero cells measured after 48 hrs by spread assay; format: functional, organism-based, Severe acute respiratory syndrome coronavirus 2
SARS-CoV-2 [3] = experiment: Antiviral activity against SARS-CoV-2 MT020880 infected in African green monkey Vero cells assessed as inhibition of viral entry preincubated for 1 hr at 10 uM; format: functional
Vero = experiment: Cytotoxicity against African green monkey Vero cells at 50 uM; format: toxicity, cell-based; conditions: chlorocebus sabaeus
[4] = Severe acute respiratory syndrome coronavirus 2, MT020880, Vero

Row | Molecule | IC50 (SARS-CoV-2 [1]; [4]) | IC50 (SARS-CoV-2 [2]; Severe acute respiratory syndrome coronavirus 2, MT020880, Vero, 48 h) | inhibition at 10 µM (SARS-CoV-2 [3]; [4]) | Activity (Vero) | IC50 (SARS-CoV-2 [1]; vero) | IC50 (SARS-CoV-2 [2]; vero) | inhibition (SARS-CoV-2 [3]; Severe acute respiratory syndrome coronavirus 2)
1 | CC(C)(C)c1ccc(CN2CCN(C[C@H](O)[C@@H](N)Cc3ccccc3)CC2)cc1 | 7.28 µM | 8.46 µM | 90% | Non-Toxic |  |  | 
2 | IVERMECTIN [listing 1 of 2 here] |  |  |  | Toxic | 4.97 µM | 5.53 µM | 
3 | IVERMECTIN [listing 2 of 2 here] |  |  |  |  |  |  | 90%
